The assay deals with Growth factor receptor-bound protein 2 (Homo sapiens, UniProt P62993). As to the kind of experiment: Inhibition of Grb2-SH2 domain binding to phospho-EGF receptor intracellular C-terminal domain. It is filed as cell-based.

SMILES strings stand for the structures.

As a reminder, the IC50 is the point on the concentration scale where inhibition reaches its midpoint. Low readings indicate greater potency, high ones weaker potency.

Sequence of Growth factor receptor-bound protein 2 (P62993 whole entry, the tested form may be a part): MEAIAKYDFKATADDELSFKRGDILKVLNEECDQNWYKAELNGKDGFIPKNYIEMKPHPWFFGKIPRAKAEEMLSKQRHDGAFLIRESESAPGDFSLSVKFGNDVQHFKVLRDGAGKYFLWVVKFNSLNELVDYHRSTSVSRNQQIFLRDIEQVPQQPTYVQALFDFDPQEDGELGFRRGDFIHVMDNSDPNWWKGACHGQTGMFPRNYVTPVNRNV

For the compound `NC(=O)[C@@H]1CCC=C[C@@H]1NC(=O)C1(NC(=O)[C@H](Cc2ccc(OP(=O)(O)O)cc2)NC(=O)OCc2cccc(N)c2)CCCCC1`, the concentration for half-maximal inhibition (IC50) is > 5000 nM.
Consider `NC(=O)C[C@H](NC(=O)C1(NC(=O)[C@H](Cc2ccc(OP(=O)(O)O)cc2)NC(=O)OCc2cccc(N)c2)CCCCC1)C(N)=O`, for which the half-maximal inhibitory concentration (IC50) was 1 nM.
